Source: patent publication US12559454B2, “Benzenesulfonamide derivatives and uses thereof” (2692372 Ontario, Inc., priority 2019, dated 2026)
Several values for one entry are separate records, joined by “and”; a condition that tells them apart may be missing. Equal values may be shown once. Read-outs that look alike come from different tables or passages of the source. Blank lines part the entries; values can stand above or below the compound they belong to.

Legend:
BTK [1] = biological target: T1, BTK (Homo sapiens, UniProt Q06187); assay: In vitro BTK inhibition (no preincubation); type: biochemical; conditions: Table 17
BMX = biological target: T2, BMX (Homo sapiens, UniProt P51813); assay: In vitro kinase inhibition, BMX; type: biochemical
T2 sequence (P51813 1-675): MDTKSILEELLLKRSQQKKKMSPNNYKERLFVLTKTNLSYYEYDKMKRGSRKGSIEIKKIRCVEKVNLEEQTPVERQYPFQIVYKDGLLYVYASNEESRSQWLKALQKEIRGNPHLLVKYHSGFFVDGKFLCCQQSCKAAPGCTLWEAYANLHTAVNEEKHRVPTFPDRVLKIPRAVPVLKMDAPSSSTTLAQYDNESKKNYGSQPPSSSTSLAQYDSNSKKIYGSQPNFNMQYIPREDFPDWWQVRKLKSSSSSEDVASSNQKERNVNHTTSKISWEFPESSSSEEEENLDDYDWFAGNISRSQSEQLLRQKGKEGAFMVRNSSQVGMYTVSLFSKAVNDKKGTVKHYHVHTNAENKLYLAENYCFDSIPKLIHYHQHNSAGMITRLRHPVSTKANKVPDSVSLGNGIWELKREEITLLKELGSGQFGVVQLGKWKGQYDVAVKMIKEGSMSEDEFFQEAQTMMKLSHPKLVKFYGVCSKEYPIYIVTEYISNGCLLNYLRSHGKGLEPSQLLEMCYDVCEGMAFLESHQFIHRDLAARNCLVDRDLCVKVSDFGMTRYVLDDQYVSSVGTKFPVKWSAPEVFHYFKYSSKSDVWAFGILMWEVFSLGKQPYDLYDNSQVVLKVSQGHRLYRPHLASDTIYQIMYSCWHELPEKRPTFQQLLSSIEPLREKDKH

[2] = Intrinsic clearance in mouse hepatocyte; type: in vitro ADME; conditions: hepatocytes
Experimental: A stock of 100 μM test compound was prepared by diluting the 10 mM test compound in DMSO with a solution of 50% acetonitrile and 50% water. In a 96-well non-coated plate, 198 μL of hepatocytes was pipetted, and the plate was placed in the incubator on an orbital shaker to allow the hepatocytes to warm for 10 minutes. To this solution was added 2 μL of the 100 μM test compound to start the reaction, and the plate was placed on an orbital shaker. […] The reaction solution was then vortexed for 10 minutes and centrifuged at 4,000 rpm for 30 minutes at 4° C. 400 μL of the supernatant was transferred to one new 96-well plate. Centrifuged at 4,000 rpm for 30 minutes at 4° C. Transfer 100 μL of the supernatant to a new 96-well plate ensuring the pellet was not disturbed. Add 100 μL of ultrapure water to all samples for analysis by LC-MS/MS. Bioanalytical method: Column—Phenomenex Synergi 4μ Hydro-PR 80A (2.0×30 mm). Mobile phase—0.1% formic acid in water (solvent A) and 0.1% formic acid in acetonitrile (solvent B). Column temperature—room temperature. Injection volume—10 μL. MS analysis—API 4000 instrument from AB Inc (Canada) with an ESI interface.

tubulin = assay: Tubulin polymerization assay; type: biochemical; conditions: for % Inhibition: Vmax normalized to tubulin only control; for % D.O.P.: degree of polymerization relative to tubulin control
Method in brief: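 Purified tubulin (3 mg/mL in the polymerization mix) in 80 mM PIPES pH 6.9, 2 mM MgCl2, 0.5 mM EGTA, 1 mM GTP, 10.2% glycerol was added to inhibitor at 37 °C. A340 read every 15 s for 30 min; maximal baseline-subtracted change relative to tubulin-only control gave % degree of polymerization.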

[3] = PAMPA, 16 h, 10 μM, pH 7.4
Experimental: (§2) 1) The stock solutions of positive controls were prepared in DMSO at the concentration of 10 mM. Testosterone and methotrexate were used as control compounds in this assay. 2) Prepare a stock solution of compounds in DMSO at the concentration of 10 mM, and further dilute with PBS (pH 7.4). The final concentration of the test compound is 10 μM.
(§3) Assay Procedures. […] 2)Carefully pipette 5 μL of the lecithin/dodecane mixture into each acceptor plate well (top compartment), avoiding pipette tip contact with the membrane. 3) Immediately after the application of the artificial membrane (within 10 minutes), add 300 μL of PBS (pH 7.4) solution to each well of the acceptor plate. Add 300 μL of drug-containing solutions to each well of the donor plate (bottom compartment) in triplicate. 4) Slowly and carefully place the acceptor plate into the donor plate, making sure the underside of the membrane is in contact with the drug-containing solutions in all wells. 5) Replace the plate lid and incubate at 25° C., 60 rpm for 16 hours. 6) After incubation, aliquots of 50 μL from each well of acceptor and donor plate are transferred into a 96-well plate. Add 200 μL of methanol (containing IS: 100 nM Alprazolam, 200 nM Labetalol and 2 μM Ketoprofen) into each well. 7) Cover with plate lid. Vortex at 750 rpm for 100 seconds. Samples were centrifuged at 3,220 g for 20 minutes. Determine the compound concentrations by LC/MS/MS.

[4] = Parallel artificial membrane permeability assay (PAMPA), Example D4; conditions: for recovery at 16 h, 10 μM: pH 7.4
Experimental: as §2, §3

MV4-11 cells = assay: CellTiter-Blue cell viability, MV-4-11; type: cell-based; conditions: Homo sapiens, 72 hrs exposure
Method in brief: (§1)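 Cells plated at 1×10^4 per well, compound (0.097656-50 μM) added after 24 hrs and exposed 72 hrs at 37° C, 5% CO2. Viability by CellTiter-Blue, 1-4 h incubation, fluorescence at 560/590 nm.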

MOLM-13 cells = assay: CellTiter-Blue cell viability, MOLM-13; type: cell-based; conditions: Homo sapiens, 72 hrs exposure
Method in brief: as §1

K562 cells = assay: CellTiter-Blue cell viability, K562; type: cell-based; conditions: Homo sapiens, 72 hrs exposure
Method in brief: as §1

[5] = Reactivity profiling with glutathione, HPLC method; type: physicochemical; conditions: IMDM buffer with 10% FBS and 5 mM GSH, 25 μM compound
Experimental: The rate of compound degradation is determined by the integrated area of the analytical peak corresponding to the intact compound (t=0) after each sampling time. The elution time was 13 minutes with the flow rate of 1.2 ml/min. The mobile phase was consisted of phase A and B. Mobile phase A was analytical grade acetonitrile (+0.1% formic acid) and mobile phase B was Milli-Q water (+0.1% formic acid). Each compound was tested in duplicate. The data was processed and analyzed using GraphPad.

[6] = Plasma concentration in Balb/C nude mice
Experimental: IP administration at 40 mg/kg
Bioanalytical assay: Mobile phase: Solvent A=Water (0.1% Formic acid, 5% Acetonitrile), Solvent B=Acetonitrile (0.1% Formic acid, 5% Water), Column: Agilent ZORBAX XDB-Phenyl 5 μm (50×2.10 mm), MS: AB API 5500 LC/MS/MS instrument, HPLC: Shimadzu (DGU-20A5R)
Mouse species: Balb/C nude mice

BTK [7] = biological target: T1, BTK; assay: BTK irreversible inhibition, enzyme kinetic analysis; type: biochemical; conditions: 500 μM ATP
Experimental: One of ordinary skill in the art will recognize that this is consistent with the irreversible inhibition of BTK by compound I-A1.
One of ordinary skill in the art will recognize that this is consistent with the irreversible inhibition of BTK by compound I-A6.
One of ordinary skill in the art will recognize that this is consistent with the irreversible inhibition of BTK by compound 3A-2.
The shift of IC50 to a lower value after pre-incubation of the enzyme indicates to one of ordinary skill in the art that a significant portion of the enzyme was inhibited irreversibly during the incubation period.

BTK [8] = biological target: T1, BTK; assay: BTK washout experiment; type: biochemical; conditions: 6-h incubation, 50 nM BTK, 280 nM compound, 400-fold dilution
Experimental: After a 3-h incubation of 40 nM BTK in the presence of 296 nM of compound I-A1, a 400-fold dilution was performed to remove excess inhibitor.
After a 6-h incubation of 50 nM BTK in the presence of 280 nM of compound 3A-6, a 400-fold dilution was performed to remove excess inhibitor.
By way of contrast, a “washout” experiment performed with ARQ-531 gives a very different result, because this compound lacks a warhead and is known to inhibit BTK reversibly. After a 6-h incubation of 50 nM BTK in the presence of 177 nM of ARQ-531, a 400-fold dilution was performed to remove excess inhibitor. […] This indicates to one of ordinary skill in the art that the enzyme was not inhibited irreversibly during the incubation with ARQ-531.

[9] = biological target: T3, NanoLuc-BTK fusion protein (Homo sapiens, UniProt Q06187); assay: NanoBRET target engagement assay in HEK 293 cells; type: cell-based; conditions: tracer K-5, 2 hours
T3 construct: host or cells: HEK 293 cells
Text: Bioluminescence Resonance Energy Transfer (BRET) is used to quantitatively measure the interaction between proteins in live cells. The NanoBRET Target Engagement (TE) Assay ((Promega, Cat #N2500)) measures the apparent binding affinity of test compounds at select kinase proteins by competitive displacement of a fluorescent NanoBRET kinase-ligand tracer (K-5), from a target kinase fused to a NanoLuc luciferase protein within intact cells. To determine whether test compounds can bind BTK, a fixed concentration of NanoBRET tracer is added to cells expressing the NanoLuc-BTK fusion protein, thereby generating a BRET reporter complex. Application of competitive test compounds results in a dose-dependent decrease in NanoBRET™ energy transfer, which allows quantitation of apparent intracellular affinity of the BTK target protein for the test compound.
In order to evaluate the binding between BTK and test compounds, an intracellular drug displacement assay was performed. […] The plates were then analyzed with a Biotek Synergy Neo2 plate reader equipped with NanoBRET 618 filters (donor 450 nm/8 nm BP and acceptor 600 nm LP). […] BRET ratios are expressed as milliBRET units (mBU), where 1 mBU corresponds to the corrected BRET ratio multiplied by 1000.

[10] = biological target: T4, His-tagged BTK kinase domain (Homo sapiens, UniProt Q06187); assay: Mass spectral analysis of tryptic digest of BTK kinase domain; type: binding; conditions: 10 μM BTK KD, 10 μM compound, 45 min; tryptic peptide 467-487
T4 construct: Intact His-tagged BTK kinase domain (SOURCE)(10 μM) was incubated
Experimental: A protein kinase that is inhibited by compound and/or pharmaceutically acceptable salt of the present disclosure may be subjected to mass spectral analysis to assess the formation of permanent, irreversible covalent adducts. […] Such methods identify permanent, irreversible covalent protein adducts by observing a mass peak that corresponds to the mass of a control sample plus the mass of an irreversible adduct.
After the incubation time, the reactions were quenched by acetone precipitation and the pellet was re-dissolved in 8 M Urea. […] The BTK protein band was then excised and subjected to an in-gel trypsin digest by reducing the protein (5 mM DTT), alkylating the thiols with iodoacetamide (15 mM), and then incubating the protein gel band with trypsin in a 37 C water bath (4 hours). The tryptic digestion was then quenched by the addition of trifluoroacetic acid, and peptides were removed from the gel band by sonicating with increasing amounts of acetonitrile (0%, 30%, & 60%). Peptides were then purified using C18 ziptips, spotted on the MALDI target plate with α-cyano-4-hydroxycinnamic acid as the desorption matrix (10 mg/mL in 0.10% TFA:Acetonitrile 50:50), and analyzed in reflectron mode.

T1 sequence (Q06187 whole entry, species assumed): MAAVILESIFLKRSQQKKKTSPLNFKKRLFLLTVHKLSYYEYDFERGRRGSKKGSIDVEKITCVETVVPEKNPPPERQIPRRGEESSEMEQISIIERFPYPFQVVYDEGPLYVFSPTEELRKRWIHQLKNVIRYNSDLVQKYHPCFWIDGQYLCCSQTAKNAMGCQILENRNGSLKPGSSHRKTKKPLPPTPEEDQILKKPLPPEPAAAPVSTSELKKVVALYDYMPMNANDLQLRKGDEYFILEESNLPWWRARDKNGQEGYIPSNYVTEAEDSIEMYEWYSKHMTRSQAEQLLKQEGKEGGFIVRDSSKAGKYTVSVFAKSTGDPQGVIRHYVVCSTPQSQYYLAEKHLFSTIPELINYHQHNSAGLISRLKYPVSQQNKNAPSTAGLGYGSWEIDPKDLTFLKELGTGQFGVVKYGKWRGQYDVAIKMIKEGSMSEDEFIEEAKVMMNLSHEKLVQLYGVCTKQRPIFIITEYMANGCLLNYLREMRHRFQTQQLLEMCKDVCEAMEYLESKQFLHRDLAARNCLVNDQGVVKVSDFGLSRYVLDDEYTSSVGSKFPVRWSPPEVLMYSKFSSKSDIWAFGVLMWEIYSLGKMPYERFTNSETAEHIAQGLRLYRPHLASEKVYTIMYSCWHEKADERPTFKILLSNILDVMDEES
T4 sequence (Q06187 402-655 limits assumed): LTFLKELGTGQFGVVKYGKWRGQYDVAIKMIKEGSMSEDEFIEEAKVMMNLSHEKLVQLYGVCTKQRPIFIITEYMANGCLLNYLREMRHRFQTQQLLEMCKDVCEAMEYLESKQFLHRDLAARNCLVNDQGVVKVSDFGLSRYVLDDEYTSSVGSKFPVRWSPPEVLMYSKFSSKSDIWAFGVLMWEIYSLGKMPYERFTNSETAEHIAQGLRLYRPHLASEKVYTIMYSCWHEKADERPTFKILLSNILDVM
T3 sequence (Q06187 whole entry, the tested form may be a part): as the sequence (Q06187 whole entry, species assumed) above

IC50 (BTK [1]): 100 to 1000 nM
IC50 (BMX): 10 to 100 nM
SMILES: COc1c(F)c(F)c(F)c(F)c1S(=O)(=O)N1CCC[C@@H](n2nc(-c3ccc(Oc4ccccc4)cc3)c3c(N)ncnc32)C1 [Compound 3A-1, (R)-3-(4-phenoxyphenyl)-1-(1-((2,3,4,5-tetrafluoro-6-methoxyphenyl)sulfonyl)piperidin-3-yl)-1H-pyrazolo[3,4-d]pyrimidin-4-amine]

SMILES: COc1ccc(NS(=O)(=O)c2c(F)c(F)c(F)c(F)c2F)cc1F [Batabulin, batabulin, reference compound]
half-life at 1 μM [2]: ≤ 0.167 h
% Inhibition (tubulin): C (>20%)
% D.O.P. (tubulin): B (< 85%)
−Log Pe [3]: 5.00
recovery at 16 h, 10 μM [4]: 67.4%

IC50 (MV4-11 cells): ≤ 100 nM
IC50 (MOLM-13 cells): 100 to 1000 nM
IC50 (K562 cells): 100 to 1000 nM
half-life at 25 μM [5]: 1.67 to 16.7 h
half-life at 1 μM [2]: 1.67 to 16.7 h
Cmax ([6]; Balb/C nude, mouse, ip, 40 mg/kg): < 20 ng/mL and < 50 µM
K (h^−1) ([6]; IP 40 mg/kg, Balb/C nude mice): A (≤5 h^−1)
−Log Pe ([4]; PBS pH 7.4, 10 μM, 16 hours): 5.02
recovery at 16 h, 10 μM [4]: 94.9%
SMILES: COc1ccc(NS(=O)(=O)c2c(F)c(F)c(F)c(F)c2OC2CC2)cc1F [Compound I-75, 2-cyclopropoxy-3,4,5,6-tetrafluoro-N-(3-fluoro-4-methoxyphenyl)benzenesulfonamide]
% Inhibition (tubulin): B (10-20%)
% D.O.P. (tubulin): B (< 85%)

IC50 (BTK [1]): 100 to 1000 nM
IC50 (BTK [7]; no pre-incubation, read-out: IC50 against BTK not pre-incubated): 109 nM
IC50 (BTK [7]; after 3-h incubation of 50 nM BTK with 280 nM compound, read-out: IC50 against pre-incubated BTK): 13.9 nM
inhibition at 0.28 µM (BTK [8]; read-out: enzyme inhibited irreversibly): 87%
remaining activity at 0.28 µM (BTK [8]; relative to DMSO, read-out: residual activity of the enzyme): 13%
IC50 [9]: 94 nM
C481 covalent modification [10]: covalent modification and ✓
SMILES: COc1c(F)c(F)c(F)c(F)c1S(=O)(=O)NCCn1nc(-c2ccc(Oc3ccccc3)cc2)c2c(N)ncnc21 [Compound 3A-6, N-(2-(4-amino-3-(4-phenoxyphenyl)-1H-pyrazolo[3,4-d]pyrimidin-1-yl)ethyl)-2,3,4,5-tetrafluoro-6-methoxybenzenesulfonamide]
